row,melting point,SMILES
1,107 to 109 °C,CCS(=O)(=O)c1ccc(C=O)cc1
2,207 to 208 °C,O=c1nc(-c2cccc(CN3CCC(c4ccccc4)CC3)n2)sc2ccccc12
3,168 °C,OC1CN(C(=S)Nc2ccccc2)Cc2sccc21 (configuration not stated)
4,116 to 117 °C,Cc1nc(C(C)C)c(S(=O)(=O)c2ccccc2)n1COCc1ccccc1
5,156 to 157 °C,Cc1cccc(CCOc2ccc(CC3SC(=O)NC3=O)cc2)n1 (configuration not stated)
6,97 to 99 °C,OC(CCN1CCN(c2ccc(F)cc2)CC1)COc1ccccc1 (configuration not stated)
7,160 to 161 °C,O=C(O)COc1cccc2c1CCC(CNC(=O)OC(c1ccccc1)c1ccccc1)C2 (configuration not stated)
8,227 to 230 °C,CCNC(=O)CCC1CCN(Cc2cnc3cc(NC(=O)c4ccc(-c5ccc(F)cc5)cc4)c(C)cc3c2)CC1
9,68 to 73 °C,C#CCOc1ccc2ccccc2c1COC(=O)C1CC1
10,118 °C,CN(C)C(=O)c1ccc(C2CCC(=O)CC2)cc1
11,168 to 170 °C,CCCCc1nc2c(N)nc3ccccc3c2n1CCOCCS(C)(=O)=O
12,52 to 56 °C,CN(C)CCCN1C(=O)c2cscc2N(C)c2ccccc21
13,130 to 131 °C,CC(C)(C)C(=O)Nc1ccc(F)cc1-c1ccc(Cl)c(Cl)c1
14,137 to 138 °C,CC(C)(C)OC(=O)C(CC(=O)O)N1C(=O)C2NC(C)(C)SC21 (configuration not stated)
15,95 to 104 °C,CCOc1nc(NCCCCC2CC(C)(C)NC(C)(C)C2)nc(NCCCCC2CC(C)(C)NC(C)(C)C2)n1
16,216 °C,N#Cc1c(N2CCN(C(=O)c3ccco3)CC2)c2cc(F)cnc2n(Cc2ccccc2)c1=O
17,135 to 137 °C,Cc1nc(N2CCN(Cc3ccccc3)S2(=O)=O)sc1C(=O)NCc1ccccc1
18,96 to 97 °C,CSc1cc(C)nc(SC)c1NC(=O)CN1CCN(CCSc2nc3ccccc3[nH]2)CC1
19,108 °C,COCc1cc([N+](=O)[O-])ccc1OCc1ccccc1
20,> 260 °C,O=C1CCC(N2C(=O)c3cccc(CNC(=O)c4cnc5ccccc5n4)c3C2=O)C(=O)N1 (configuration not stated)
21,232 to 233 °C,O=C1c2cccc3c([N+](=O)[O-])c(Br)cc(c23)C(=O)N1O
22,62 to 63 °C,CCCCn1c(C)nc(SC)nc1=O
23,147 to 150 °C,COC(=O)c1cc(=O)c2ccc(S)cc2o1

row,melting point,SMILES
1,125 to 128 °C,CCc1cc(C(=O)c2ccccc2Cl)c(-n2c(CO)nnc2CNC(=O)c2ccc(Cl)c(Cl)c2)s1
2,> 275 °C,Cc1ccc(C(=O)Nc2nc(-c3ccccc3)c(-c3nc4ccccc4c(=O)n3-c3ccc(Cl)cc3)s2)cc1
3,95 °C,Cc1cc(OCc2ccccc2)c(F)cc1[N+](=O)[O-]
4,149 to 154 °C,CC(C)(C)NCC(O)COc1ccc(-c2nc(C(N)=O)c[nH]2)cc1 (configuration not stated)
5,89 to 91 °C,CN(C(=O)C(C)(C)c1cc(C(F)(F)F)cc(C(F)(F)F)c1)c1ccc(Cl)cc1C(=O)c1ccccc1
6,105 to 107 °C,COC(=O)c1ccc(O)c(C(=O)CC(=O)c2ccccc2OC(C)C)c1
7,186 to 187 °C,Nc1cc(Oc2ccc3c(c2)CCN3C(=O)Nc2cccc(C(F)(F)F)c2)ncn1
8,96 to 97 °C,Cc1c(Cl)c(N)cc(Cl)c1Oc1ccc(Cl)cc1Cl
9,175 to 180 °C,CC1(C)C2CCC1(CN1CN(CC34CCC(CC3)C4(C)C)CN(CC34CCC(CC3)C4(C)C)C1)CC2
10,107 to 111 °C,C[C@@H]1Cc2ccsc2[C@H](C)N1CCNC(=O)c1ccc(NS(=O)(=O)c2ccc(Cl)cc2)cc1 (relative stereo)
11,158 to 161 °C,Cn1c2c(cnc3ccccc32)c(=O)n1-c1ccc(Cl)cc1
12,178 to 180 °C,C#CCCOc1ccc(/C=C/C(=O)Nc2ccccc2C(=O)O)cc1OC
13,74 to 76 °C,O=[N+]([O-])c1ccc2c(ccn2CCCCl)c1
14,107 to 108 °C,Cc1cc(SC(=O)N(C)C)c(C(C)(C)C)cc1C=O
15,108 to 110 °C,COc1ccc(S(=O)(=O)N2C(=O)C(N)(c3ccccc3)c3cc(Cl)ccc32)c(OC)c1 (configuration not stated)
16,162 °C,C[Si](C)(C)c1cc(O)c([Si](C)(C)C)cc1O
17,169 to 173 °C,NC(=O)c1cc(C(=O)CN(Cc2ccccc2)Cc2ccccc2)ccc1OCC(O)CO (configuration not stated)
18,205 to 206 °C,CC(=O)SCC(Cc1ccccc1)C(=O)Nc1cc(C(=O)O)cc(C(C)C)c1 (configuration not stated)
19,102 to 104 °C,CCCOc1ccc2c(c1)NC(=O)CO2
20,165 to 167 °C,CCCNC(=O)[C@H]1CN(c2ccc(N3CCOCC3)c(F)c2)C(=O)O1
21,76 to 78 °C,CC(=O)Oc1ccc(NC(=O)OC(C)(C)C)cc1C(=O)O
22,140 to 141 °C,COC(=O)c1sc2cncc(Oc3ccc(Cl)cc3)c2c1C
23,137 to 139 °C,O=c1c(Cc2cccnc2)cn2c3cc(Cl)ccc3c3cc(OCCCO)cc1c32

row,melting point,SMILES
1,175 to 176 °C,Cc1sc(N2C(=O)OCC2(C)C)nc1-c1ccc(Br)cc1
2,239 to 243 °C,CC(=O)Nc1cccc2c1CN(c1ccc3c(ccn3C)c1)C2=O
3,150 to 151 °C,CCCc1nc2c(N)nc3ccccc3c2n1CCCCC(=O)N(C)OC
4,67 to 68 °C,Cc1nc2cc(OCCO)ccc2s1
5,112 to 113 °C,CN(C(=O)c1ccccc1-c1ccc(F)cc1)C1N(C)C(c2ccc(F)cc2)=NC1(C(F)(F)F)C(F)(F)F (configuration not stated)
6,63 to 64 °C,Cc1cc(CCCCCCCCOc2ccc(C3=NCCO3)cc2Cl)on1
7,205 to 207 °C,COc1ccccc1-c1ccc2cnc(Nc3ccc(=O)[nH]c3)nn12
8,238 to 240 °C,O=c1[nH]cnc2cc(Br)sc12
9,212 to 214 °C,Cc1c(C)c2c(c(C)c1NC(=O)NC(C)(C)C)C(O)(c1ccc3ccccc3c1)C(C)(C)O2 (configuration not stated)
10,152 to 158 °C,CC(=O)OC1CSC(Oc2ccncc2)C(OC(C)=O)C1OC(C)=O (configuration not stated)
11,187 to 190 °C,CCS(=O)(=O)CCC(=O)NNC(=O)N1Cc2ccccc2Oc2ccc(OC)cc21
12,173 to 175 °C,CCOC(=O)c1nn(-c2ccc(OC)cc2)c2c1CCN(c1ccc(I)cc1)C2=O
13,112 to 114 °C,Cc1cc(C2(c3cccc(-c4cncnc4)c3)N=C(N)N(C)C2=O)ccc1O[C@H](C)c1ccccc1 (some centres not stated)
14,59 to 62 °C,COc1cc(C)c(C(=O)c2c(C(F)(F)F)ccnc2Cl)c(OC)c1OC
15,281 to 282 °C,O=C1c2cccc(SCc3ccccc3)c2C(=O)c2cccc(SCc3ccccc3)c21
16,156 to 157 °C,O=C(c1ccc2nonc2c1)N1CC2CC1C(Cl)C2Cl (configuration not stated)
17,200 to 207 °C,COc1cc(CNC(=O)c2cc3c(=O)n(Cc4ccc([N+](=O)[O-])nc4)c(=O)n(C)c3s2)ccn1
18,156 to 158 °C,Cc1ccccc1Nc1c(N)cnc2ccccc12
19,77 °C,Nc1cc([N+](=O)[O-])cc2c1CCCC2
20,198 to 200 °C,O=C1/C(=C/C=C/c2ccccc2)CCc2cc(OCCn3ccnc3)ccc21
21,188 to 190 °C,Cc1ccn(-c2ccc(C(=O)c3cccc4c3Nc3ncccc3C(C)N4)c(C(F)(F)F)c2)n1 (configuration not stated)
22,173 °C,O=C1c2ccccc2C(O)N1CCCN1CCN(c2ccc(Cl)cc2)CC1 (configuration not stated)
23,128 °C,O=c1cnn(-c2cc(Cl)c(C(c3ccc(Cl)cc3)c3nc(-c4ccccc4)no3)c(Cl)c2)c(=O)[nH]1 (configuration not stated)

row,melting point,SMILES
1,282 to 285 °C,O=C1c2ccc(F)cc2C(=O)N1CCN1CCN(c2n[nH]c3cc(F)ccc23)CC1
2,125 to 128 °C,COc1cc([N+](=O)[O-])ccc1-c1cncs1
3,161 to 162 °C,C[C@H](N)C(=O)N[C@@H](C)C(=O)NC(C)(Cc1ccccc1)c1ccccc1 (some centres not stated)
4,142 to 144 °C,O=C(O)CCCN1c2ccccc2Sc2ccc(Cl)cc21
5,62 to 64 °C,CCOC(Cc1ccc(OCCN2CCC(C)(C)c3cc(C(=NOC)c4ccccc4)ccc32)cc1)C(=O)O (configuration not stated)
6,141 to 142 °C,COC(=O)C(C)(C)NC(=O)Nc1ccc(Cl)c(C(F)(F)F)c1
7,237 to 239 °C,O=C1CN2Cc3c(ccc(OCC(=O)N(CCO)C4CCCCC4)c3Cl)N=C2N1
8,145 to 147 °C,CNC(=O)n1cnc(C(=O)NC(C)(C)C)c1N
9,92 to 94 °C,COC(=O)C(C)(C)C(Cc1ccccc1)NCc1ccccc1 (configuration not stated)
10,91 to 98 °C,CCC1CCC(CCc2ccccc2NC(=O)C=Cc2ccccc2)N(C)C1 (configuration not stated)
11,242 °C,NS(=O)(=O)c1cccc(-c2cn(-c3nc(-c4ccc(F)c(F)c4)cc(C(F)(F)F)n3)cn2)c1
12,> 260 °C,CC1Cn2c(nc3ccccc32)NC1=O (configuration not stated)
13,159 to 160 °C,N#Cc1cnc2cc(F)c(OCc3ccccc3)cc2c1Cl
14,192 to 198 °C,CS(=O)(=O)c1ccc(-n2cncc2-c2cnc(Cl)c(Cl)c2)cc1
15,164 to 165 °C,CCCCc1nn(-c2cccc([N+](=O)[O-])c2)c(=O)n1Cc1ccc(-c2ccccc2S(=O)(=O)NC(C)(C)C)cc1
16,90 to 92 °C,COC(=O)C1Oc2ccc([N+](=O)[O-])cc2O1 (configuration not stated)
17,196 to 198 °C,C[C@H](NC(=O)c1cccnc1Oc1cccnc1)c1cccs1
18,101 to 102 °C,CCNC(=O)c1cc(C(F)(F)F)ccc1[Si](C)(C)C
19,304 °C,CCOC(=O)CNC(=O)Nc1cnc(Nc2ccc(Cl)c(Cl)c2)nc1NC
20,59 to 60 °C,CCOCc1ccc(C=C(C)c2ccc3c(c2)C(C)(C)CCO3)cc1
21,128 °C,C=C(C)COc1ccc(Br)cc1CN(CC)c1ccc(C(=O)NS(=O)(=O)c2scnc2C)nn1
22,249 to 252 °C,Clc1ccc(Nc2cncc(-n3cc4ccccc4n3)n2)cc1
23,178 to 180 °C,CC(=O)OC1(Cc2ccncc2)C(=O)N(N2CCOCC2)c2ccccc21 (configuration not stated)

row,SMILES,melting point
1,ClCc1ncn2c1CN=C(c1ccccc1Cl)c1cc(Cl)ccc1-2,165 °C
2,C=CCN1CCC23CCCCC2C1Cc1ccc(O)cc13 (configuration not stated),197 to 198 °C
3,C=CCN(CC=C)Cc1csc(-c2ncn3c2CN(C)C(=O)c2cc(F)ccc2-3)n1,125 to 127 °C
4,CC(=O)N1CC(CCN2CC=C(c3c[nH]c4cc(Cl)ccc34)CC2)c2ccccc21 (configuration not stated),169 to 170 °C
5,Cc1nc(C(=O)NN)c2n1-c1ccc(Cl)cc1C(c1ccccc1F)=NC2,235 to 237 °C
